Measured values published in patent publication US10219516B2, “Molecules having pesticidal utility, and intermediates, compositions, and processes, related thereto” (priority 2015, dated 2019).
Like-named read-outs stand apart in the source and are kept apart here.

Assays:
[1] = test system: Beet Armyworm (Spodoptera exigua, LAPHEG); assay: Bioassay on Beet Armyworm (BAW), 128-well diet tray assay; format: in vivo
Experimental: (§1) Certain molecules disclosed in this document were tested against BAW and CL using procedures described in the following examples. In the reporting of the results, the “BAW & CL Rating Table” was used (See Table Section).
Bioassays on BAW were conducted using a 128-well diet tray assay. One to five second instar BAW larvae were placed in each well (3 mL) of the diet tray that had been previously filled with approximately 1.5 mL of artificial diet to which 50 μg/cm^2 of the test molecule (dissolved in 50 μL of 90:10 acetone-water mixture) had been applied (to each of eight wells) and then allowed to dry. Trays were covered with a clear self-adhesive cover, vented to allow gas exchange, and held at 25° C., 14:10 light-dark for five to seven days. Percent mortality was recorded for the larvae in each well; activity in the eight wells was then averaged. The results are indicated in the table entitled “Table ABC: Biological Results” (See Table Section).

[2] = test system: Cabbage Looper (Trichoplusia ni, TRIPNI); assay: Bioassay on Cabbage Looper (CL), 128-well diet tray assay; format: in vivo; conditions: Trichoplusia ni
Experimental: as §1
Bioassays on CL were conducted using a 128-well diet tray assay. one to five second instar CL larvae were placed in each well (3 mL) of the diet tray that had been previously filled with 1 mL of artificial diet to which 50 μg/cm^2 of the test molecule (dissolved in 50 μL of 90:10 acetone-water mixture) had been applied (to each of eight wells) and then allowed to dry. Trays were covered with a clear self-adhesive cover, vented to allow gas exchange, and held at 25° C., 14:10 light-dark for five to seven days. Percent mortality was recorded for the larvae in each well; activity in the eight wells was then averaged. The results are indicated in the table entitled “Table ABC: Biological Results” (See Table Section).

[3] = Species BAW (Beet Armyworm), read-out: BAW (Biological Results, rating)
[4] = Species CL (Cabbage Looper), read-out: CL (Biological Results, rating)
[5] = Beet Armyworm, 128-well diet tray assay, read-out: BAW rating
[6] = Cabbage Looper, 128-well diet tray assay, read-out: CL rating

Row | SMILES | pest or weed control at 50 µg/cm2 [1, 3] | pest or weed control at 50 µg/cm2 [2, 4] | pest or weed control at 50 µg/cm2 [1, 5] | pest or weed control at 50 µg/cm2 [2, 6]
1 | CSc1ccc(NC(=O)c2cc(NC(=O)[C@H]3[C@H](c4cc(Cl)cc(Cl)c4)C3(Cl)Cl)ccc2Cl)cc1 (relative stereo) [F149, trans-2-Chloro-5-(2,2-dichloro-3-(3,5-dichlorophenyl)cyclopropane-1-carboxamido)-N-(4-(methylthio)phenyl)benzamide] | 50 to 100% | 50 to 100% | – | –
2 | CNc1cc(NC(=O)c2cc(NC(=O)[C@H]3[C@H](c4cc(Cl)cc(Cl)c4)C3(Cl)Cl)ccc2Cl)ccc1C (relative stereo) [F207, trans-2-Chloro-5-(2,2-dichloro-3-(3,5-dichlorophenyl)cyclopropane-1-carboxamido)-N-(4-methyl-3-(methylamino)phenyl)benzamide] | 50 to 100% | 50 to 100% | – | –
3 | N#Cc1cc(F)ccc1NC(=O)c1cc(NC(=O)[C@H]2[C@H](c3ccc(F)c(Cl)c3)C2(Cl)Cl)ccc1Cl (relative stereo) [F192, trans-2-Chloro-N-(2-cyano-4-fluorophenyl)-5-(2,2-dichloro-3-(3-chloro-4-fluorophenyl)cyclopropane-1-carboxamido)benzamide] | 50 to 100% | 50 to 100% | – | –
4 | CC(C)(C)OC(=O)N(C(=O)OC(C)(C)C)c1cc(NC(=O)c2cc(NC(=O)[C@H]3[C@H](c4ccc(Cl)c(Cl)c4)C3(Cl)Cl)ccc2Cl)c(F)cc1F [F520, tert-Butyl-N-((tert-butoxy)carbonyl)-N-(5-(2-chloro-5-((1R,3R)-2,2-dichloro-3-(3,4-dichlorophenyl)cyclopropane-1-carboxamido)benzamido)-2,4-difluorophenyl)carbamate] | – | – | 50 to 100% | 50 to 100%
5 | O=C(Nc1ncncc1F)c1cc(NC(=O)[C@H]2[C@H](c3cc(Cl)cc(Cl)c3)C2(Cl)Cl)ccc1Cl (relative stereo) [F318, trans-2-Chloro-5-(2,2-dichloro-3-(3,5-dichlorophenyl)cyclopropane-1-carboxamido)-N-(5-fluoropyrimidin-4-yl)benzamide] | 50 to 100% | 50 to 100% | – | –
6 | O=C(Nc1ncco1)c1cc(NC(=O)[C@H]2[C@H](c3cc(Cl)cc(Cl)c3)C2(Cl)Cl)ccc1Cl (relative stereo) [F145, trans-2-Chloro-5-(2,2-dichloro-3-(3,5-dichlorophenyl)cyclopropane-1-carboxamido)-N-(oxazol-2-yl)benzamide] | 50 to 100% | 50 to 100% | – | –
7 | CN(C(=O)C(F)(F)F)c1ccc(NC(=O)c2cc(NC(=O)[C@H]3[C@H](c4cc(Cl)cc(Cl)c4)C3(Cl)Cl)ccc2Cl)cc1 (relative stereo) [PF29, trans-2-Chloro-5-(2,2-dichloro-3-(3,5-dichlorophenyl)cyclopropane-1-carboxamido)-N-(4-(2,2,2-trifluoro-N-methylacetamido)phenyl)benzamide] | – | – | 50 to 100% | 50 to 100%
8 | Cc1c(Cl)cc([C@H]2[C@H](C(=O)Nc3ccc(Cl)c(C(=O)N(C)c4ccc(F)cc4)c3)C2(Cl)Cl)cc1Cl (relative stereo) [F120, trans-2-Chloro-5-(2,2-dichloro-3-(3,5-dichloro-4-methylphenyl)cyclopropane-1-carboxamido)-N-(4-fluorophenyl)-N-methylbenzamide] | 50 to 100% | 50 to 100% | – | –
9 | N#Cc1cc(F)ccc1NC(=O)c1cc(NC(=O)[C@H]2[C@H](c3cc(Cl)c(Cl)c(Cl)c3)C2(Cl)Cl)ccc1Cl (relative stereo) [F191, trans-2-Chloro-N-(2-cyano-4-fluorophenyl)-5-(2,2-dichloro-3-(3,4,5-trichlorophenyl)cyclopropane-1-carboxamido)benzamide] | 50 to 100% | 50 to 100% | – | –
10 | Cc1cc(N(C)C(=O)OC(C)(C)C)ccc1NC(=O)c1cc(NC(=O)[C@H]2[C@H](c3cc(Cl)cc(Cl)c3)C2(Cl)Cl)ccc1Cl (relative stereo) [F198, trans-tert-Butyl-(4-(2-chloro-5-(2,2-dichloro-3-(3,5-dichlorophenyl)cyclopropane-1-carboxamido)benzamido)-3-methylphenyl)(methyl)carbamate] | 50 to 100% | 50 to 100% | – | –
11 | O=C(Nc1ccc(F)cc1)c1cc(NC(=O)[C@H]2[C@H](c3cc(Cl)c(Cl)cc3Cl)C2(Cl)Cl)ccc1Cl (relative stereo) [F73, trans-2-Chloro-5-(2,2-dichloro-3-(2,4,5-trichlorophenyl)cyclopropane-1-carboxamido)-N-(4-fluorophenyl)benzamide] | 50 to 100% | 50 to 100% | – | –
12 | CN(C(=S)c1cc(NC(=O)[C@H]2[C@H](c3cc(Cl)cc(Cl)c3)C2(Cl)Cl)ccc1Cl)c1ccc(F)cc1 (relative stereo) [F112, trans-2,2-Dichloro-N-(4-chloro-3-((4-fluorophenyl)(methyl)carbamothioyl)phenyl)-3-(3,5-dichlorophenyl)cyclopropane-1-carboxamide] | 50 to 100% | 50 to 100% | – | –
13 | CC(=O)Nc1ccc(NC(=O)c2cc(NC(=O)[C@H]3[C@H](c4cc(Cl)cc(Cl)c4)C3(Cl)Cl)c(Cl)cc2Cl)cc1 (relative stereo) [F255, trans-N-(4-Acetamidophenyl)-2,4-dichloro-5-(2,2-dichloro-3-(3,5-dichlorophenyl)cyclopropane-1-carboxamido)benzamide] | 50 to 100% | 0 to 50% | – | –
14 | N#Cc1ccc(NC(=O)c2cc(NC(=O)[C@H]3[C@H](c4cc(Cl)cc(Cl)c4)C3(Cl)Cl)ccc2Cl)cc1 (relative stereo) [F5, trans-2-Chloro-N-(4-cyanophenyl)-5-(2,2-dichloro-3-(3,5-dichlorophenyl)cyclopropane-1-carboxamido)benzamide] | 50 to 100% | 50 to 100% | – | –
15 | CC(C)(C)OC(=O)N(C(=O)OC(C)(C)C)c1c(F)ccc(NC(=O)c2cc(NC(=O)[C@H]3[C@H](c4ccc(Cl)c(Cl)c4)C3(Cl)Cl)ccc2Cl)c1F [F500, tert-Butyl-N-((tert-butoxy)carbonyl)-N-(3-(2-chloro-5-((1R,3R)-2,2-dichloro-3-(3,4-dichlorophenyl)cyclopropane-1-carboxamido)benzamido)-2,6-difluorophenyl)carbamate] | – | – | 50 to 100% | 0 to 50%
16 | O=C(Nc1ccccn1)c1cc(NC(=O)[C@H]2[C@H](c3cc(Cl)cc(Cl)c3)C2(Cl)Cl)ccc1Cl (relative stereo) [F78, trans-2-Chloro-5-(2,2-dichloro-3-(3,5-dichlorophenyl)cyclopropane-1-carboxamido)-N-(pyridin-2-yl)benzamide] | 50 to 100% | 50 to 100% | – | –
17 | Cc1cc([N+](=O)[O-])ccc1NC(=O)c1cc(NC(=O)[C@H]2[C@H](c3cc(Cl)cc(Cl)c3)C2(Cl)Cl)ccc1Cl (relative stereo) [PF75, trans-2-Chloro-5-(2,2-dichloro-3-(3,5-dichlorophenyl)cyclopropane-1-carboxamido)-N-(2-methyl-4-nitrophenyl)benzamide] | – | – | 50 to 100% | 50 to 100%
18 | Cc1cc(NC(=O)OC(C)(C)C)ccc1NC(=O)c1cc(NC(=O)[C@H]2[C@H](c3cc(Cl)cc(Br)c3)C2(Cl)Cl)ccc1Cl (relative stereo) [F335, tert-Butyl (4-(5-(trans-3-(3-bromo-5-chlorophenyl)-2,2-dichlorocyclopropane-1-carboxamido)-2-chlorobenzamido)-3-methylphenyl)carbamate] | 50 to 100% | 50 to 100% | – | –
19 | O=C(Nc1ccc(F)cc1)c1cc(NC(=O)[C@H]2[C@H](c3cc(F)cc(Cl)c3)C2(Cl)Cl)ccc1Cl (relative stereo) [PF1, trans-2-Chloro-5-(2,2-dichloro-3-(3-chloro-5-fluorophenyl)cyclopropane-1-carboxamido)-N-(4-fluorophenyl)benzamide] | – | – | 50 to 100% | 50 to 100%
20 | O=C(Nc1cc(C(F)(F)F)[nH]n1)c1cc(NC(=O)[C@H]2[C@H](c3cc(Cl)cc(Cl)c3)C2(Cl)Cl)ccc1Cl (relative stereo) [PF138, trans-2-Chloro-5-(2,2-dichloro-3-(3,5-dichlorophenyl)cyclopropane-1-carboxamido)-N-(5-(trifluoromethyl)-1H-pyrazol-3-yl)benzamide] | – | – | 50 to 100% | 50 to 100%
21 | O=C(Nc1ccc(Cl)c(C(=S)Nc2ccc(F)cc2)c1)[C@H]1[C@H](c2cc(Cl)cc(Cl)c2)C1(Cl)Cl (relative stereo) [F113, trans-2,2-Dichloro-N-(4-chloro-3-((4-fluorophenyl)carbamothioyl)phenyl)-3-(3,5-dichlorophenyl)cyclopropane-1-carboxamide] | 50 to 100% | 50 to 100% | – | –
